Data as given in ChEMBL document CHEMBL1201862, “PubChem BioAssay data set” (2004).
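Test compounds were applied to cells in 96-well plates for 48 hours at 5 doses. At the GI50, growth is halved.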 Activity calls are given as the source filed them. Cut-off read from the data, not from the text of the source: active = GI50 up to about 1.1 µM and inactive = higher.

Tests used:
Test in all cases: DTP human tumour cell line panel, 48 h
[1] = system: UACC-257
[2] = system: M14
[3] = system: COLO 205
[4] = system: HCT-15
[5] = system: CCRF-CEM
[6] = system: TK-10
[7] = system: MDA-N
[8] = system: NCI/ADR-RES
[9] = system: SF-268
[10] = system: PC-3
[11] = system: T47D
[12] = system: EKVX
[13] = system: OVCAR-5
[14] = system: SR
[15] = system: U-251
[16] = system: ACHN
[17] = system: MOLT-4
[18] = system: NCI-H23
[19] = system: IGROV-1
[20] = system: DU-145
[21] = system: SK-MEL-5
[22] = system: MDA-MB-435
[23] = system: NCI-H460
[24] = system: MDA-MB-231
[25] = system: OVCAR-3
[26] = system: UO-31
[27] = system: UACC-62
[28] = system: OVCAR-4
[29] = system: 786-0
[30] = system: SNB-19
[31] = system: A498
[32] = system: Hs-578T
[33] = system: SK-OV-3
[34] = system: A549
[35] = system: HCT-116
[36] = system: SW-620
[37] = system: NCI-H522
[38] = system: SF-295
[39] = system: HOP-92
[40] = system: SK-MEL-28
[41] = system: Malme-3M
[42] = system: SNB-75
[43] = system: NCI-H226
[44] = system: SK-MEL-2
[45] = system: SF-539
[46] = system: HT-29
[47] = system: MCF7
[48] = system: KM12
[49] = system: BT-549
[50] = system: LOX IMVI
[51] = system: CAKI-1
[52] = system: OVCAR-8
[53] = system: HOP-62
[54] = system: RPMI-8226
[55] = system: K562
[56] = system: SN12C
[57] = system: RXF 393
[58] = system: HL-60

With `CC(=O)OCC(OC(C)=O)C(OC(C)=O)C(/C=N/N(C(C)=O)S(=O)(=O)c1ccc(/C=C2\NC(=O)NC2=O)cc1)OC(C)=O` (stereo not given) the GI50 [1] was > 100 µM (inactive), the GI50 [2] was > 100 µM (inactive) and the GI50 [3] was > 100 µM (inactive). The GI50 [4] was > 100 µM, the GI50 [5] was 50.6 µM (inactive) and the GI50 [6] was > 100 µM (inactive). The GI50 [7] was > 100 µM (inactive), the GI50 [8] was > 100 µM (inactive) and the GI50 [9] was > 100 µM (inactive). The GI50 [10] was > 100 µM (inactive), the GI50 [11] was > 100 µM (inactive) and the GI50 [12] was > 100 µM (inactive). For the same compound, the GI50 [13] was > 100 µM (inactive), the GI50 [14] was > 100 µM (inactive) and the GI50 [15] was > 100 µM (inactive). For the same compound, the GI50 [16] was > 100 µM (inactive), the GI50 [17] was > 100 µM (inactive) and the GI50 [18] was > 100 µM (inactive). The GI50 [19] was > 100 µM (inactive), the GI50 [20] was > 100 µM (inactive) and the GI50 [21] was > 100 µM (inactive). For the same compound, the GI50 [22] was > 100 µM (inactive), the GI50 [23] was > 100 µM (inactive) and the GI50 [24] was > 100 µM (inactive). For the same compound, the GI50 [25] was > 100 µM (inactive), the GI50 [26] was > 100 µM (inactive) and the GI50 [27] was > 100 µM (inactive). The GI50 [28] was > 100 µM (inactive), the GI50 [29] was > 100 µM (inactive) and the GI50 [30] was > 100 µM (inactive). The GI50 [31] was > 100 µM (inactive), the GI50 [32] was > 100 µM (inactive) and the GI50 [33] was > 100 µM (inactive). The GI50 [34] was > 100 µM (inactive), the GI50 [35] was > 100 µM (inactive) and the GI50 [36] was > 100 µM (inactive).
For `COc1cc(/C=C/C(=O)c2ccc(O)c(OC)c2)ccc1O`, the GI50 [1] was 22.5 µM (inactive), the GI50 [37] was 14.5 µM (inactive) and the GI50 [3] was 20.1 µM (inactive). For the same compound, the GI50 [6] was 46.8 µM (inactive), the GI50 [38] was 20.6 µM (inactive) and the GI50 [39] was 27.2 µM (inactive). For the same compound, the GI50 [11] was 22.9 µM (inactive), the GI50 [40] was 17.6 µM (inactive) and the GI50 [12] was 12.3 µM (inactive). The GI50 [13] was 24.8 µM (inactive), the GI50 [41] was 22.3 µM (inactive) and the GI50 [24] was 29.1 µM (inactive). For the same compound, the GI50 [25] was 18.7 µM (inactive), the GI50 [42] was 24.8 µM (inactive) and the GI50 [28] was 24.3 µM (inactive). For the same compound, the GI50 [43] was 24.5 µM (inactive), the GI50 [32] was 17.5 µM (inactive) and the GI50 [33] was 13.4 µM (inactive). For the same compound, the GI50 [44] was 20.3 µM (inactive).
In the case of `O=C(O)CC1OCC=C2CN3CCC45c6ccccc6NC4C1C2CC35` (stereo not given), the GI50 [1] is reported as > 100 µM (inactive), the GI50 [45] is reported as > 100 µM (inactive) and the GI50 [37] is reported as > 100 µM (inactive). For the same compound, the GI50 [2] was > 100 µM (inactive), the GI50 [3] was > 100 µM (inactive) and the GI50 [4] was > 100 µM. The GI50 [46] was > 100 µM (inactive), the GI50 [5] was > 100 µM (inactive) and the GI50 [6] was > 100 µM (inactive). For the same compound, the GI50 [7] was > 100 µM (inactive), the GI50 [8] was > 100 µM (inactive) and the GI50 [47] was > 100 µM (inactive). The GI50 [38] was > 100 µM (inactive), the GI50 [48] was > 100 µM (inactive) and the GI50 [9] was > 100 µM (inactive). The GI50 [10] was > 100 µM (inactive), the GI50 [39] was > 100 µM (inactive) and the GI50 [49] was > 100 µM (inactive). For the same compound, the GI50 [11] was > 100 µM (inactive), the GI50 [40] was > 100 µM (inactive) and the GI50 [12] was > 100 µM (inactive). The GI50 [13] was > 100 µM (inactive), the GI50 [14] was > 100 µM (inactive) and the GI50 [15] was > 100 µM (inactive). The GI50 [16] was > 100 µM (inactive), the GI50 [50] was > 100 µM (inactive) and the GI50 [17] was > 100 µM (inactive). The GI50 [51] was > 100 µM (inactive), the GI50 [52] was > 100 µM (inactive) and the GI50 [53] was > 100 µM (inactive). For the same compound, the GI50 [18] was > 100 µM (inactive), the GI50 [19] was > 100 µM (inactive) and the GI50 [20] was > 100 µM (inactive). The GI50 [21] was > 100 µM (inactive), the GI50 [22] was > 100 µM (inactive) and the GI50 [54] was > 100 µM (inactive). The GI50 [23] was > 100 µM (inactive), the GI50 [24] was > 100 µM (inactive) and the GI50 [25] was > 100 µM (inactive). The GI50 [26] was > 100 µM (inactive), the GI50 [27] was > 100 µM (inactive) and the GI50 [42] was 77.1 µM (inactive). For the same compound, the GI50 [28] was > 100 µM (inactive), the GI50 [43] was > 100 µM (inactive) and the GI50 [29] was > 100 µM (inactive). For the same compound, the GI50 [55] was > 100 µM (inactive), the GI50 [30] was > 100 µM (inactive) and the GI50 [31] was > 100 µM (inactive). The GI50 [56] was > 100 µM (inactive), the GI50 [57] was > 100 µM (inactive) and the GI50 [33] was > 100 µM (inactive). The GI50 [58] was > 100 µM (inactive), the GI50 [34] was > 100 µM (inactive) and the GI50 [35] was > 100 µM (inactive). For the same compound, the GI50 [36] was > 100 µM (inactive).
